Assays:
[1] = system: MTAP-deleted HCT116 cells; assay: Cell counting during cysteine starvation, MTAP-deleted HCT116; type: cell-based; conditions: −Cys, low levels of methionine
Excerpt: [NT] Successfully transfected cells were selected with puromycin and grown as clonal colonies. Clones were selected based initially on MTA efflux measured by liquid chromatography mass spectrometry (LC-MS). Clones with greatest MTA efflux were selected, and methylthioadenosine phosphorylase knockout (MTAP-KO) was then confirmed by western blot. MTAP-KO HCT116 cells were transfected with pCMV-Hygro-MTAP and pCMV-Hygro-negative control vector, selected using hygromycin B, and grown as clonal colonies. Clones were selected based initially on MTA efflux measured by LC-MS. Clones with low MTA efflux were selected, then MTAP re-expression was confirmed by western blot. […] DAPI-stained cell nuclei were detected via microscopy. […] For experiments using spermine oxidase (SMOX) and polyamine oxidase (PAOX) inhibitors or MTOB, cells were pre-treated with stated concentrations for 16 hours in complete medium. After pre-treatment, cells were washed in PBS, and treatment was continued in complete or cysteine-free medium for stated times. After treatment was finished, cells were fixed and stained as described above. For experiments using MTA, polyamines, GPX4 and CSE inhibitors, treatment started at the same time as cysteine starvation. For experiments involving hypoxic conditions, cells were seeded in normoxic conditions and allowed to adhere for 24 hours before control and cysteine starvation medium was added and cells were immediately transferred either to a humidified cell culture incubator set to 37° C. in 20% O2 (normoxia), or a hypoxia chamber set to 37° C. in 1% O2 (hypoxia) for the stated times. Cells were fixed immediately and stained as described above.

[2] = system: MDA-MB-231, MIAPaCa-2 and PANC-1 cells; assay: Cell counting during cysteine starvation, starvation-sensitive cell lines; type: cell-based; conditions: medium without cysteine
Procedure: The base medium formulation contained 0.2 mM L-histidine, 0.4 mM L-isoleucine, 0.4 mM L-leucine, 0.4 mM L-lysine, 0.2 mM L-phenylalanine, 0.4 mM L-threonine, 0.08 mM L-tryptophan, 0.4 mM L-valine, 0.2 mM L-arginine, 2 mM L-glutamine, 0.2 mM L-tyrosine, 0.4 mM L-alanine, 0.3 mM L-proline, 0.15 mM L-glutamic acid, 0.1 mM L-aspartic acid, 0.2 mM L-asparagine, and 0.4 mM glycine.
DAPI-stained cell nuclei were detected via microscopy.
AMD1 inhibitor sardomozide/SAM486A, GPX4 inhibitor RSL3, and CSE inhibitor beta-cyano-L-alanine were used.
For experiments using spermine oxidase (SMOX) and polyamine oxidase (PAOX) inhibitors or MTOB, cells were pre-treated with stated concentrations for 16 hours in complete medium. After pre-treatment, cells were washed in PBS, and treatment was continued in complete or cysteine-free medium for stated times. After treatment was finished, cells were fixed and stained as described above. For experiments using MTA, polyamines, GPX4 and CSE inhibitors, treatment started at the same time as cysteine starvation. For experiments involving hypoxic conditions, cells were seeded in normoxic conditions and allowed to adhere for 24 hours before control and cysteine starvation medium was added and cells were immediately transferred either to a humidified cell culture incubator set to 37° C. in 20% O2 (normoxia), or a hypoxia chamber set to 37° C. in 1% O2 (hypoxia) for the stated times. Cells were fixed immediately and stained as described above.

CSCC[C@H](N)C(=O)O [methionine]
effect of methionine on survival during cysteine starvation [1]: inhibited the ability of MTAP deleted cells to survive
sensitivity to cysteine starvation versus methionine concentration ([2]; methionine 0 to 10 μM, 17 h and 41 h): remained sensitive to cysteine starvation down to 5 μM methionine
sensitivity to cysteine starvation versus methionine concentration ([2]; methionine 10 μM-1000 μM, 20 h): remained highly sensitive

— US12109184B2, “Personalized methods of treating cancer” (CANCER RESEARCH TECHNOLOGY LIMITED, priority 2020, dated 2024)
